{"source": "patent US8580811B2", "about": "(Ligand Pharmaceuticals Incorporated, priority 2005, dated 2013)", "data": [{"target": "T1, human AR (Homo sapiens, UniProt P10275)", "T1 construct": "expressed in transfected cells; host or cells: COS-1 cells", "T1 sequence (P10275 1-920)": "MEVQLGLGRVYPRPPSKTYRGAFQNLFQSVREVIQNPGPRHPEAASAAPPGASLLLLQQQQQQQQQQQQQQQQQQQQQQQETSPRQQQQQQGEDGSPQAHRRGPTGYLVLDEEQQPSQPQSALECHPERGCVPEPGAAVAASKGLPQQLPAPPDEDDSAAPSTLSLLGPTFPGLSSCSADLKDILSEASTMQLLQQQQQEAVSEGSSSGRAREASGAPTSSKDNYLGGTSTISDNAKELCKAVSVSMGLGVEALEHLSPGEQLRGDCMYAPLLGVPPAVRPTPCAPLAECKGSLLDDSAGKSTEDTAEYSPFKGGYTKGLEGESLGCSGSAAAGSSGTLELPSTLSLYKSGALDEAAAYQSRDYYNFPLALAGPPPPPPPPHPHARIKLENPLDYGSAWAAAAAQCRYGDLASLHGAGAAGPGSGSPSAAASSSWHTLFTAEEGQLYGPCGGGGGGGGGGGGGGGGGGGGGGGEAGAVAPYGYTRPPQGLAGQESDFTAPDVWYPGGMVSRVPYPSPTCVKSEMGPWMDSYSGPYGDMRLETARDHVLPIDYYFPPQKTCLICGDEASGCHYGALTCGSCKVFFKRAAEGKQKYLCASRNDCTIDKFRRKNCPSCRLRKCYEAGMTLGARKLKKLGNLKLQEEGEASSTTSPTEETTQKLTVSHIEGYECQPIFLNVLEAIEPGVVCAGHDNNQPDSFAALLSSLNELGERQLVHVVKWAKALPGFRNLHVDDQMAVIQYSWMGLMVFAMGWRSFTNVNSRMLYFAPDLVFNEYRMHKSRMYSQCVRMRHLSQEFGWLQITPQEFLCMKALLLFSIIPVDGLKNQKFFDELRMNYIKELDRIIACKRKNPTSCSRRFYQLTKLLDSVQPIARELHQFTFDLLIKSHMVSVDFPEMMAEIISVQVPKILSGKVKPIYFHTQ", "test": "IR Binding Assay: whole cell competitive binding of test compounds against 3H-DHT in COS-1 cells transfected with pRShAR", "conditions": "not given", "experimental": "(§1) For the whole cell binding assay, COS-1 cells in 96-well microtiter plates including DMEM-10% FBS were transfected as described above with the following plasmid DNA: pRShAR (2 ng/well), pRS-β-Gal (50 ng/well) and pGEM (48 ng/well). Six hours after transfection, media was removed, the cells were washed with PBS and fresh media was added. The next day, the media was changed to DMEM-serum free to remove any endogenous ligand that might be complexed with the receptor in the cells.\n(§2) After 24 hours in serum-free media, either a saturation analysis to determine the Kd for tritiated dihydrotestosterone (^3H-DHT) on human AR or a competitive binding assay to evaluate the ability of test compounds to compete with ^3H-DHT for AR was performed. […] For the competitive binding assay, media including 1 nM ^3H-DHT and test compounds in concentrations ranging from 10^−10 to 10^−6 M were added to the cells. Three replicates were used for each sample. After three hours at 37° C., an aliquot of the total binding media at each concentration of ^3H-DHT was removed to estimate the amount of free ^3H-DHT. The remaining media was removed, the cells were washed three times with PBS to remove unbound ligand, and cells were lysed with a Triton X-100-based buffer. The lysates were assayed for amount of bound ^3H-DHT and β-Gal activity using a scintillation counter or spectrophotometer, respectively.\n(§3) For the saturation analyses, the difference between the total binding and the nonspecific binding, normalized by the β-Gal rate, was defined as specific binding. The specific binding was evaluated by Scatchard analysis to determine the Kd for ^3H-DHT. See e.g., D. Rodbard, “Mathematics and statistics of ligand assays: an illustrated guide” In: J. Langon and J. J. Clapp, eds., Ligand Assay, Masson Publishing U.S.A., Inc., New York, pp. 45-99, (1981), the disclosure of which is herein incorporated by reference. For the competition studies, the data was plotted as the amount of ^3H-DHT (% of control in the absence of test compound) remaining over the range of the dose-response curve for a given compound. […] The Ki values were determined by application of the Cheng-Prusoff equation to the IC50 values, where:\n(§4) [formula] After correcting for non-specific binding, IC50 values were determined. […] The IC50 value was determined graphically from a log-logit plot of the data. The Ki values were determined by application of the Cheng-Prusoff equation to the IC50 values, the labeled ligand concentration and the Kd of the labeled ligand. see e.g., Cheng, Y. C. and Prusoff, W. H. Biochem. Pharmacol. 22:3099 (1973).", "units": {"Ki": "nM"}, "values": [{"smiles": "CCC1C(C)c2c(ccc3[nH]c(=O)cc(Cl)c23)N1CC(F)(F)Cl", "note": "(racemic) [Compound 176, (±)-9-Chloro-3-(2-Chloro-2,2-difluoroethyl)-2-ethyl-1-methyl-1,2,3,6-tetrahydro-pyrrolo[3,2-f]quinolin-7-one]", "Ki": "< 5"}, {"smiles": "CCC1C(C)c2c(ccc3[nH]c(=O)cc(Cl)c23)N1CC(F)(F)C(F)(F)F", "note": "(racemic) [Compound 177, (±)-9-Chloro-2-ethyl-1-methyl-3-(2,2,3,3,3-pentafluoropropyl)-1,2,3,6-tetrahydro-pyrrolo[3,2-f]quinolin-7-one]", "Ki": "< 5"}, {"smiles": "CCC1C(C)c2c(ccc3[nH]c(=O)cc(C(F)(F)F)c23)N1CC(F)(F)Cl", "note": "(racemic) [Compound 178, (±)-3-(2-Chloro-2,2-difluoroethyl)-2-ethyl-1-methyl-9-trifluoromethyl-1,2,3,6-tetrahydro-pyrrolo[3,2-f]quinolin-7-one]", "Ki": "< 5"}, {"smiles": "CCC1C(C)c2c(ccc3[nH]c(=O)cc(C(F)(F)F)c23)N1CC(F)(F)C(F)(F)F", "note": "(racemic) [Compound 179, (±)-2-Ethyl-1-methyl-3-(2,2,3,3,3-pentafluoropropyl)-9-trifluoromethyl-1,2,3,6-tetrahydro-pyrrolo[3,2-f]quinolin-7-one]", "Ki": "< 5"}, {"smiles": "CCC1C(C)c2c(ccc3[nH]c(=O)cc(C(F)(F)F)c23)N1CCC(F)(F)F", "note": "(racemic) [Compound 180, (±)-2-Ethyl-1-methyl-9-trifluoromethyl-3-(3,3,3-trifluoropropyl)-1,2,3,6-tetrahydro-pyrrolo[3,2-f]quinolin-7-one]", "Ki": "< 5"}, {"smiles": "CCC1C(C)c2c(ccc3[nH]c(=O)cc(C(F)(F)F)c23)N1CCCC(F)(F)F", "note": "(racemic) [Compound 181, (±)-2-Ethyl-1-methyl-3-(4,4,4-trifluorobutyl)-9-trifluoromethyl-1,2,3,6-tetrahydro-pyrrolo[3,2-f]quinolin-7-one]", "Ki": "5 to 10"}, {"smiles": "CC1c2c(ccc3[nH]c(=O)cc(C(F)(F)F)c23)N(CCCC(F)(F)F)C1C", "note": "(racemic) [Compound 182, (±)-1,2-Dimethyl-3-(4,4,4-trifluorobutyl)-9-trifluoromethyl-1,2,3,6-tetrahydro-pyrrolo[3,2-f]quinolin-7-one]", "Ki": "< 5"}, {"smiles": "Cc1c(C)n(CC(O)C(F)(F)F)c2ccc3[nH]c(=O)cc(Cl)c3c12", "note": "(racemic) [Compound 231, (±)-9-Chloro-1,2-dimethyl-3-(3,3,3-trifluoro-2-hydroxy-propyl)-3,6-dihydro-pyrrolo[3,2-f]-quinolin-7-one]", "Ki": "< 5"}, {"smiles": "CCc1c(C)c2c3c(Cl)cc(=O)[nH]c3ccc2n1CC(O)C(F)(F)F", "note": "(racemic) [Compound 232, (±)-9-Chloro-2-ethyl-1-methyl-3-(3,3,3-trifluoro-2-hydroxy-propyl)-3,6-dihydro-pyrrolo[3,2-f]quinolin-7-one]", "Ki": "< 5"}, {"smiles": "Cc1c(C(F)(F)F)n(CC(O)C(F)(F)F)c2ccc3[nH]c(=O)cc(Cl)c3c12", "note": "(racemic) [Compound 233, (±)-9-Chloro-1-methyl-3-(3,3,3-trifluoro-2-hydroxypropyl)-2-trifluoromethyl-3,6-dihydropyrrolo[3,2-f]quinolin-7-one]", "Ki": "< 5"}, {"smiles": "Cc1c(C)n(CC(O)C(F)(F)F)c2ccc3[nH]c(=O)cc(C(F)(F)F)c3c12", "note": "(racemic) [Compound 243, (±)-1,2-Dimethyl-3-(3,3,3-trifluoro-2-hydroxy-propyl)-9-trifluoromethyl-3,6-dihydro-pyrrolo[3,2-f]-quinolin-7-one]", "Ki": "< 5"}, {"smiles": "O=c1cc(C(F)(F)F)c2c(ccc3c2c2c(n3CC(O)C(F)(F)F)CCC2)[nH]1", "note": "(racemic) [Compound 246, (±)-3-(3,3,3-Trifluoro-2-hydroxy-propyl)-9-trifluoromethyl-1,2-trimethylene-3,6-dihydro-pyrrolo[3,2-f]quinolin-7-one]", "Ki": "5 to 10"}, {"smiles": "CCc1c(C)c2c3c(C(F)(F)F)cc(=O)[nH]c3ccc2n1CC(O)C(F)(F)F", "note": "(racemic) [Compound 247, (±)-2-Ethyl-1-methyl-3-(3,3,3-Trifluoro-2-hydroxy-propyl)-9-trifluoromethyl-3,6-dihydro-pyrrolo[3,2-f]quinolin-7-one]", "Ki": "< 5"}, {"smiles": "Cc1[nH]c2ccc3[nH]c(=O)cc(Cl)c3c2c1C", "note": "[Compound 105, 9-Chloro-1,2-dimethyl-3,6-dihydro-pyrrolo[3,2-f]quinolin-7-one]", "Ki": "< 5"}, {"smiles": "CCc1[nH]c2ccc3[nH]c(=O)cc(Cl)c3c2c1C", "note": "[Compound 106, 9-Chloro-2-ethyl-1-methyl-3,6-dihydro-pyrrolo[3,2-f]quinolin-7-one]", "Ki": "5 to 10"}, {"smiles": "O=c1cc(Cl)c2c(ccc3[nH]c4c(c32)CCC4)[nH]1", "note": "[Compound 107, 9-Chloro-1,2-trimethylene-3,6-dihydro-pyrrolo[3,2-f]quinolin-7-one]", "Ki": "> 10"}, {"smiles": "Cc1c(C(F)(F)F)[nH]c2ccc3[nH]c(=O)cc(Cl)c3c12", "note": "[Compound 108, 9-Chloro-1-methyl-2-trifluoromethyl-3,6-dihydro-pyrrolo[3,2-f]quinolin-7-one]", "Ki": "< 5"}, {"smiles": "CCc1c(C)[nH]c2ccc3[nH]c(=O)cc(Cl)c3c12", "note": "[Compound 109, 9-Chloro-2-methyl-1-ethyl-3,6-dihydro-pyrrolo[3,2-f]quinolin-7-one]", "Ki": "> 10"}, {"smiles": "Cc1c(-c2ccccc2)[nH]c2ccc3[nH]c(=O)cc(Cl)c3c12", "note": "[Compound 110, 9-Chloro-1-methyl-2-phenyl-3,6-dihydro-pyrrolo[3,2-f]quinolin-7-one]", "Ki": "< 5"}, {"smiles": "Cc1cc2c(ccc3[nH]c(=O)cc(Cl)c32)[nH]1", "note": "[Compound 112, 9-Chloro-2-methyl-3,6-dihydro-pyrrolo[3,2-f]quinolin-7-one]", "Ki": "> 10"}, {"smiles": "O=c1cc(Cl)c2c(ccc3[nH]c4c(c32)CCCC4)[nH]1", "note": "[Compound 113, 9-Chloro-1,2-tetramethylene-3,6-dihydro-pyrrolo[3,2-f]quinolin-7-one]", "Ki": "> 10"}, {"smiles": "Cc1c[nH]c2ccc3[nH]c(=O)cc(Cl)c3c12", "note": "[Compound 114, 9-Chloro-1-methyl-3,6-dihydro-pyrrolo[3,2-f]quinolin-7-one]", "Ki": "> 10"}, {"smiles": "Cc1c(-c2ccc(F)cc2)[nH]c2ccc3[nH]c(=O)cc(Cl)c3c12", "note": "[Compound 116, 9-Chloro-2-(4-fluorophenyl)-1-methyl-3,6-dihydro-pyrrolo[3,2-f]quinolin-7-one]", "Ki": "< 5"}]}, {"target": "T1, human AR", "test": "IR Binding Assay: whole cell competitive binding of test compounds against 3H-DHT in COS-1 cells transfected with pRShAR", "conditions": "competition with 1 nM 3H-DHT, transfected COS-1 cells, 3 h at 37° C., Cheng-Prusoff from IC50", "experimental": "as §1, §2, §3, §4", "units": {"Ki": "nM"}, "values": [{"smiles": "Cc1c(C)n(CC(O)C(F)(F)F)c2ccc3[nH]c(=O)cc(Cl)c3c12", "note": "(racemic) [Compound 279, rac-9-Chloro-1,2-dimethyl-3-(3,3,3-trifluoro-2-hydroxy-propyl)-3,6-dihydro-pyrrolo[3,2-f]-quinolin-7-one]", "Ki": "< 5"}]}, {"target": "T1, human AR", "test": "IR Binding Assay: whole cell competitive binding of test compounds against 3H-DHT in COS-1 cells transfected with pRShAR", "conditions": "competition with 1 nM 3H-DHT, transfected COS-1 cells, 3 h at 37° C., Cheng-Prusoff from IC50; read-out: Ki", "experimental": "as §1, §2, §3, §4", "units": {"Ki": "nM"}, "values": [{"smiles": "CCOC(=O)c1[nH]c2ccc3[nH]c(=O)cc(Cl)c3c2c1C", "note": "[Compound 111, 9-Chloro-1-methyl-7-oxo-6,7-dihydro-3H-pyrrolo[3,2-f]quinoline-2-carboxylic acid ethyl ester]", "Ki": "> 10"}, {"smiles": "COc1ccc(-c2[nH]c3ccc4[nH]c(=O)cc(Cl)c4c3c2C)cc1", "note": "[Compound 115, 9-Chloro-2-(4-methoxy-phenyl)-1-methyl-3,6-dihydro-pyrrolo[3,2-f]quinolin-7-one]", "Ki": "> 10"}]}]}
